Measured values as given in patent US20190119284A1, “ErbB Inhibitors and Uses Thereof” (The Regents of the University of California, priority 2016, published 2019).
Blank lines part the entries; values can stand above or below the molecule they belong to.

Key:
FAK = FAK (Homo sapiens, UniProt Q05397); assay: Nanosyn in vitro kinase profiling: FAK; format: biochemical; conditions: compound at 1 μM
[1] = system: mutationally activated EGFR; assay: proliferation assays of EGFR cell lines (FIG. 7C); format: cell-based; conditions: in contrast to lapatinib
MST2 = MST2 (Homo sapiens, UniProt Q13188); assay: Nanosyn in vitro kinase profiling: MST2; format: biochemical; conditions: compound at 1 μM
[2] = biological target: T1, mutationally activated forms of EGFR (Homo sapiens, UniProt P00533, DEL746-750); assay: EGFR phosphosite signaling in HCC 827 cells; format: cell-based; parameters: endogenous in cells; host or cells: HCC 827 (A1); conditions: concentration giving near complete inhibition
T1 sequence (P00533 with tags, fused parts or gaps DEL746-750): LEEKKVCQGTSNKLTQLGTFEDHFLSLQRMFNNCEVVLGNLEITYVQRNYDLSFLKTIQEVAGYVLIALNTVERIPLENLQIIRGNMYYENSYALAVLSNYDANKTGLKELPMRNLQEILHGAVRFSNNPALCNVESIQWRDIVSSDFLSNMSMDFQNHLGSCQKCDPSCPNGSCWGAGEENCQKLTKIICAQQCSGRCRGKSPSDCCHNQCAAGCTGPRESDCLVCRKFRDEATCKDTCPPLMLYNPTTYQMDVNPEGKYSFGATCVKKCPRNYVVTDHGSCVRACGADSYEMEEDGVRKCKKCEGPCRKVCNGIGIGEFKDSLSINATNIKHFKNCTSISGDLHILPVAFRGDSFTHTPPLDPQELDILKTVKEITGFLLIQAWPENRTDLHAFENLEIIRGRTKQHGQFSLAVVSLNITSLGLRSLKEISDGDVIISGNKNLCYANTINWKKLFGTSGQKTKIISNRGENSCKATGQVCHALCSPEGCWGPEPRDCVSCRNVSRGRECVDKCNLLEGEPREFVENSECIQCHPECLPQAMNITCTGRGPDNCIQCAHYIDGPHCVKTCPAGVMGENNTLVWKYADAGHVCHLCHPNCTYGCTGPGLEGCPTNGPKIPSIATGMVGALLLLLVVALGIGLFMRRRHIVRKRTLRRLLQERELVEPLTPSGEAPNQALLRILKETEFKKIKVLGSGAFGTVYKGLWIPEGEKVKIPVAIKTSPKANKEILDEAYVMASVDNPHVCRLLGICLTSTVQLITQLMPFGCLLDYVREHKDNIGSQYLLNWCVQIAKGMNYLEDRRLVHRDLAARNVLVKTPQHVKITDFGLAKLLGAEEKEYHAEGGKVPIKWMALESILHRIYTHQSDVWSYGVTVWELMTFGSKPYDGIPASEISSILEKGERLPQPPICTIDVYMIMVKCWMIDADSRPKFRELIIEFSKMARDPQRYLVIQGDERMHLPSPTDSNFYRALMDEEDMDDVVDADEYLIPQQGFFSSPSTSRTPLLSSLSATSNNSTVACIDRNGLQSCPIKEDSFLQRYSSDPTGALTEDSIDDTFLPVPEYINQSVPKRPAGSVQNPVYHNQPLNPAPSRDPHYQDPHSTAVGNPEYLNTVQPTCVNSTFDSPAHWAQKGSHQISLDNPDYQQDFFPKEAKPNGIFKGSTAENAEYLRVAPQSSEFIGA

[3] = system: NRG autocrine signaling in CHL-1 cells; assay: NRG autocrine feedback signaling in CHL-1 cells (immunoblot); format: cell-based; conditions: CHL-1 cells pre-treated with lapatinib 24 h, washed, drug 24 h; at 1 μM
Procedure: Similar results were obtained in FaDu cells, which are also dependent on NRG autocrine signaling (FIGS. 20A-20B).
Immunoblotting. Cells were grown in 6 well plates and treated according to the indicated conditions at which point the media was aspirated, cells were washed with 1 mL of cold PBS, which was then aspirated and the plates were frozen at −80° C. The frozen cells were thawed on the plates in a buffer containing 50 mM Tris pH 7.5, 150 mM NaCl, 1 mM EDTA, and 1% Triton X-100 supplemented with 1× phosphatase (PhoSTOP, Roche) and 1× protease (complete-mini tablets, Roche) inhibitors. Lysates were scraped, transferred to Eppendorf tubes, and cleared by centrifugation at 20,000×g for 20 min at 4° C. The clarified lysates were transferred to chilled, clean tubes, and normalized for protein concentration by Bradford (Bio-Rad). The normalized lysates were diluted with Laemmli loading buffer, and 10 μg of total protein was run on a 4-12% gradient gel (Invitrogen), which was then transferred to […] nitrocellulose (Bio-Rad) and analyzed using the indicated primary antibodies according to the manufacturer's recommendations. Primary antibodies were detected using IRDye secondary antibodies (Li-Cor) according to the manufacturer's recommendations and scanned on an Odyssey imager (Li-Cor). Scanned images were cropped and assembled in Adobe Illustrator 6.

MEK1 = MEK1 (Homo sapiens, UniProt Q02750); assay: Nanosyn in vitro kinase profiling: MEK1; format: biochemical; conditions: compound at 1 μM
Chain of MEK1 (Q02750 whole entry, species assumed): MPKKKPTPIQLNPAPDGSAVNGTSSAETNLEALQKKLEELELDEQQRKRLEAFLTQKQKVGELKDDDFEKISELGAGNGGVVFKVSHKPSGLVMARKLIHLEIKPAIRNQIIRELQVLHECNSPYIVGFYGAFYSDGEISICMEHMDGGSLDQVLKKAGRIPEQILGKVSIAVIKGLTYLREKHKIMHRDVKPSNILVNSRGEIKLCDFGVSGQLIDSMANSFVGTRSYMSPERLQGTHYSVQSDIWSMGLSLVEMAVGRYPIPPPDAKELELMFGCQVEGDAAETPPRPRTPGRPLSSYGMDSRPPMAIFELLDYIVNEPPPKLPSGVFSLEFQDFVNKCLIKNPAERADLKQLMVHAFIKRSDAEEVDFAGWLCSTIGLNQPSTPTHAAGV

wt EGFR = biological target: T2, wt EGFR (Homo sapiens, UniProt P00533); assay: phosphosite signaling on wt EGFR; format: cell-based
T2 construct: leaving the same phosphosites on wt EGFR relatively unaffected up to 1 μM; endogenous in cells

[4] = biological target: T1, mutationally activated forms of EGFR; assay: EGFR phosphosite signaling in NCI-H1650 cells; format: cell-based; parameters: endogenous in cells; host or cells: NCI-H1650 (A2); conditions: concentration giving near complete inhibition
FaDu cells = assay: 72 h proliferation of FaDu cells; format: cell-based
Excerpt: FIGS. 20A-20B. […] FIG. 20A. […] FIG. 20B.

MEK2 = MEK2 (Homo sapiens, UniProt P36507); assay: Nanosyn in vitro kinase profiling: MEK2; format: biochemical; conditions: compound at 1 μM
PRKACA = PRKACA (Homo sapiens, UniProt P17612); assay: Nanosyn in vitro kinase profiling: PRKACA; format: biochemical; conditions: compound at 1 μM
NCI-H1781 cells = assay: 72 h proliferation of NCI-H1781 cells; format: cell-based; conditions: NCI-H1781, 72 h
wt HER2 or HER2 T798M = assay: HEK-293T cells transfected with wt HER2 or HER2 T798M; format: cell-based; conditions: HER2 T798M vs wt, 1 nM-10 μM
DYRK1B = DYRK1B (Homo sapiens, UniProt Q9Y463); assay: Nanosyn in vitro kinase profiling: DYRK1B; format: biochemical
Chain of DYRK1B (Q9Y463 whole entry, species assumed): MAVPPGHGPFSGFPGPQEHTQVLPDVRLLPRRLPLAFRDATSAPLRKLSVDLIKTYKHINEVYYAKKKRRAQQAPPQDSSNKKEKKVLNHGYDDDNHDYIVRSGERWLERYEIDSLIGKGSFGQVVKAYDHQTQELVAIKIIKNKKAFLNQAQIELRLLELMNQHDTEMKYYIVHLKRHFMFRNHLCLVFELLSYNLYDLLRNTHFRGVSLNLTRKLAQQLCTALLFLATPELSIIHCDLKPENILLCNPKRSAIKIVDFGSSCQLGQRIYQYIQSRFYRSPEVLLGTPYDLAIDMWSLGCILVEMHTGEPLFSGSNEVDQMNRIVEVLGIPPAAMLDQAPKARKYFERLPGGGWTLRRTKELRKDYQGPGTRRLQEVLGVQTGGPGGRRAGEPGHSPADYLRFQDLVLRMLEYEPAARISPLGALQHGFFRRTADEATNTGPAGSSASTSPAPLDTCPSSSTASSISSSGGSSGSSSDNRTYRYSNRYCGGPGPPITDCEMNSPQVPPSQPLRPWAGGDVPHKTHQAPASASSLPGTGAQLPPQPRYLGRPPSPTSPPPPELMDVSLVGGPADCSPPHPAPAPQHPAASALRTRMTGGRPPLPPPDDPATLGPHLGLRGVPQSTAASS
Procedure: (§1) This was confirmed by in vitro profiling against a panel of kinases, with compound 2 only showing potent inhibition of EGFR and Ab1 (Table 2).
(§2) In vitro Kinome Screen. In vitro profiling of compound 2 at 100 nM was conducted by Nanosyn.

P70S6K1 = P70S6K1 (Homo sapiens, UniProt P23443); assay: Nanosyn in vitro kinase profiling: P70S6K1; format: biochemical
Chain of P70S6K1 (P23443 whole entry, species assumed): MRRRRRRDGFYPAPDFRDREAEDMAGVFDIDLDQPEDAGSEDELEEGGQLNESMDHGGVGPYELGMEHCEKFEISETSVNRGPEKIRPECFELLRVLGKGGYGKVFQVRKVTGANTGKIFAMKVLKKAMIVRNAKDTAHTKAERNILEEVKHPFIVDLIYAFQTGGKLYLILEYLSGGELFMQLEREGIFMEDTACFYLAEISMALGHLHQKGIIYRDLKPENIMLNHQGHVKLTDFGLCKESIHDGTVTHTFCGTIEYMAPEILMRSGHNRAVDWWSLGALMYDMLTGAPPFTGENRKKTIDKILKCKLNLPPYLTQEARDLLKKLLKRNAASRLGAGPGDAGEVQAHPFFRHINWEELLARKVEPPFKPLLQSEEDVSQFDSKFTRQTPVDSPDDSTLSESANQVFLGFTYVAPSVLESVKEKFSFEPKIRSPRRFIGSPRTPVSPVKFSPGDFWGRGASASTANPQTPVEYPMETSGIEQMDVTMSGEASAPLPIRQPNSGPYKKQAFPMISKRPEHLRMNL
Procedure: as §1, §2

TRKA = TRKA (Homo sapiens, UniProt P04629); assay: Nanosyn in vitro kinase profiling: TRKA; format: biochemical
Chain of TRKA (P04629 33-796, species assumed): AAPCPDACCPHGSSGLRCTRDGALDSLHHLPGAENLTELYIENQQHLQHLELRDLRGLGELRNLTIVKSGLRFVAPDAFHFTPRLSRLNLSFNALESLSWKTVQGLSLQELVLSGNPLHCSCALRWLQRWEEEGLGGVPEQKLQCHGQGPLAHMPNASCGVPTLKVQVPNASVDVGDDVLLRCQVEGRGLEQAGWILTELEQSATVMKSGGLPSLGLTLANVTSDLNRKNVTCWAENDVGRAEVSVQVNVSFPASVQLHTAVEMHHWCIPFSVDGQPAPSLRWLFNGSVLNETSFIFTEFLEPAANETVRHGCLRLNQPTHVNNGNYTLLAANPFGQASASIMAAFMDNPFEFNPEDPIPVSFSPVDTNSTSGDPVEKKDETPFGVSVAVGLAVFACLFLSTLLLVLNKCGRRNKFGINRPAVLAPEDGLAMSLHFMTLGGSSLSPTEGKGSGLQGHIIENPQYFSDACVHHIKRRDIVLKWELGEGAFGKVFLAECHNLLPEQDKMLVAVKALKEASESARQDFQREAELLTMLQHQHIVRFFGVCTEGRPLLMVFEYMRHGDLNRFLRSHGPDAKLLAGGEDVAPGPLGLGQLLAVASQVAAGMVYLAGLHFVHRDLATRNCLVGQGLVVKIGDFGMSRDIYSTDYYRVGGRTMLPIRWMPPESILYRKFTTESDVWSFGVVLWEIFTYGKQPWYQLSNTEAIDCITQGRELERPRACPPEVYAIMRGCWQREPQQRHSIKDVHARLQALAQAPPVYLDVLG
Procedure: as §1, §2

TYRO3 = TYRO3 (Homo sapiens, UniProt Q06418); assay: Nanosyn in vitro kinase profiling: TYRO3; format: biochemical
Chain of TYRO3 (Q06418 41-890, species assumed): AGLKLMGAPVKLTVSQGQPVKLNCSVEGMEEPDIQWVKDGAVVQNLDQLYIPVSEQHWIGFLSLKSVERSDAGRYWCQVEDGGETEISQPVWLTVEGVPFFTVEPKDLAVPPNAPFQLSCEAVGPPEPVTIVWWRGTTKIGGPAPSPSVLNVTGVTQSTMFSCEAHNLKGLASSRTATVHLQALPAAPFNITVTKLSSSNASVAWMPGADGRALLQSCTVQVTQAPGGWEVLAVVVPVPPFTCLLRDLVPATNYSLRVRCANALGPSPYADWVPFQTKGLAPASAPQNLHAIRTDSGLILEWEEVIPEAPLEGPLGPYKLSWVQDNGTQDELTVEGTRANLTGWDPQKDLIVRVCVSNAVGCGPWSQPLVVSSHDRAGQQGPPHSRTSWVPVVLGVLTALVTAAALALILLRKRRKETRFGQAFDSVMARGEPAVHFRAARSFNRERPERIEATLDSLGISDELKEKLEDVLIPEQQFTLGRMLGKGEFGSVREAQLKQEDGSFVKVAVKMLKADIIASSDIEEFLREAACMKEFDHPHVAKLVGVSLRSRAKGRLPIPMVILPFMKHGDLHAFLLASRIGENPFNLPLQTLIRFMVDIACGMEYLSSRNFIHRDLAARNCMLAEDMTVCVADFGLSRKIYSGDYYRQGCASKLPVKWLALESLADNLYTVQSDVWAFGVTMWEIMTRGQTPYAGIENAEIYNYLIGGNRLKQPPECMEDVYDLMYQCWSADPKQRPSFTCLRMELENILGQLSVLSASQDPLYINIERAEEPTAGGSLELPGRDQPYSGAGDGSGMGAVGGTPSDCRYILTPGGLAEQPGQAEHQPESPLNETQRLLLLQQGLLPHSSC
Procedure: as §1, §2

[5] = biological target: T3, HER3 intracellular domain (665-1323) (Homo sapiens, UniProt P21860); assay: HER3 intracellular domain autophosphorylation on vesicles; format: biochemical; conditions: 1 μM HER3 intracellular domain, 200 μM ATP
T3 construct: The HER3 intracellular domain (665-1323) was concentrated on vesicles; made in house
T3 sequence (P21860 684-1342): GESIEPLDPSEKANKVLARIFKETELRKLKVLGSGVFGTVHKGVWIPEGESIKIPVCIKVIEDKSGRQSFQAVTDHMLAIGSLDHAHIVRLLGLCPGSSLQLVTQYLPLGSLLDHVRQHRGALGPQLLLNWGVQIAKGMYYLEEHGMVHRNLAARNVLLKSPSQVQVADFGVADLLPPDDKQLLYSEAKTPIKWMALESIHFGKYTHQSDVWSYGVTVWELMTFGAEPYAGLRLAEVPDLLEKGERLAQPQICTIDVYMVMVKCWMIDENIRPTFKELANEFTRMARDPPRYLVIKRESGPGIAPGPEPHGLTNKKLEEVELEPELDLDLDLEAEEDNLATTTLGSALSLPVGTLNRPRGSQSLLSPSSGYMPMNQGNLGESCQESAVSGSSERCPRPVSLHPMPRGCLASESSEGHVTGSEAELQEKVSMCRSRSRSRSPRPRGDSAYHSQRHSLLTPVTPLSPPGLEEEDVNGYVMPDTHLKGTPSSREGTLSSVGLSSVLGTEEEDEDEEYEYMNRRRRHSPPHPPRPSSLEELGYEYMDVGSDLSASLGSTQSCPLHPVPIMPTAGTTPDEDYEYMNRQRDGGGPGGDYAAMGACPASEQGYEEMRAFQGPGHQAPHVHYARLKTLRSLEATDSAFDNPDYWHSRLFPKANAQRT
Procedure: FIG. 11. […] 1 μM of The HER3 intracellular domain (665-1323) was concentrated on vesicles and incubated with 200 μM ATP in the presence of varying concentrations of compound 2. HER3 kinase activity inhibition was evaluated by western blotting for autophosphorylation of HER3.

inhibition at 1 µM (FAK): -10% | inhibition at 1 µM (MST2): 84% | near complete inhibition of multiple phosphosites on EGFR [2]: less than 10 nM | inhibition at 1 µM (MEK1): 66% | same phosphosites on wt EGFR relatively unaffected up to (wt EGFR): > 1 µM | near complete inhibition of multiple phosphosites on EGFR [4]: less than 10 nM | inhibition at 1 µM (MEK2): 70% | inhibition at 1 µM (PRKACA): 20%
SMILES: COc1ccc(-c2ccoc2)cc1Nc1ncnc2[nH]cc(-c3cc[nH]n3)c12 [compound 3, N-(5-(furan-3-yl)-2-methoxyphenyl)-5-(1H-pyrazol-3-yl)-7H-pyrrolo[2,3-d]pyrimidin-4-amine]
preferential inhibition in proliferation assays [1]: preferential inhibition of the mutationally activated EGFR | inhibition of feedback-released signaling [3]: complete inhibition | inhibition of proliferation relative to current HER2 inhibitors (FaDu cells): more effective than current HER2 inhibitors | sensitivity of cell proliferation (NCI-H1781 cells): sensitive

inhibition at 0.1 µM (DYRK1B; compound at 100 nM): 4.01% | inhibition at 1 µM (DYRK1B; compound at 1 μM): 22.6% | inhibition at 0.1 µM (P70S6K1; compound at 100 nM): 8.88% | inhibition at 1 µM (P70S6K1; compound at 1 μM): 38.4% | inhibition at 0.1 µM (TRKA; compound at 100 nM): 2.38% | inhibition at 1 µM (TRKA; compound at 1 μM): 4.5% | inhibition at 0.1 µM (TYRO3; compound at 100 nM): 3.29% | inhibition at 1 µM (TYRO3; compound at 1 μM): 5.56% | binding to HER3 / inhibition of HER3 autophosphorylation [5]: binds to the active site of HER3
SMILES: COc1ccc(-c2ccco2)cc1Nc1ncnc2[nH]nc(-c3ccco3)c12 [compound 2, 3-(furan-2-yl)-N-(5-(furan-2-yl)-2-methoxyphenyl)-1H-pyrazolo[3,4-d]pyrimidin-4-amine]
effect of gatekeeper mutation on binding affinity (wt HER2 or HER2 T798M): reduces the binding affinity
